Results taken from US11999742B2, “Substituted pyrrolo[1,2-b]pyridazines as anthelmintics” (BOEHRINGER INGELHEIM VETMEDICA GMBH, priority 2021, dated 2024).

Key:
[1] = system: Dirofilaria immitis (JYD-34 isolate); assay: In vivo efficacy against resistant JYD-34 isolate in immune-deficient NSG mice; settings: po, 1080 h, read-out: efficacy (live D. immitis larvae recovered), NSG mice, oral 25 mg/kg on Day 1, 15 and 30, count at Day 45
[2] = system: Dirofilaria immitis (JYD-34 isolate); assay: In vivo efficacy against resistant JYD-34 isolate in beagle dogs (Biological Example 6); settings: necropsy day 120; for % Efficacy / Geometric Mean Live Heartworm Count: beagle dogs, JYD-34 isolate, 5 mg/kg oral, four times at monthly intervals (Days 0, 27, 55, 84); for efficacy against adult heartworm compared with Interceptor: beagles, oral 5 mg/kg four times at monthly intervals
[3] = system: Dirofilaria immitis (JYD-34 isolate); assay: In vivo efficacy at two dosages against resistant JYD-34 isolate in beagle dogs (Biological Example 7); settings: for % Efficacy / Geometric Mean Live Heartworm Count: beagle dogs, JYD-34 isolate; for efficacy against adult heartworm: beagles
[4] = system: Dirofilaria immitis (JYD-34 isolate); assay: In vivo efficacy against resistant JYD-34 isolate in beagle dogs (Biological Example 8); settings: for efficacy at preventing infections with adult heartworm: beagles
[5] = 5 mg/kg single dose monthly for four months
[6] = 10 mg/kg (over 2 consecutive days, 5 mg/kg each) monthly for four months
[7] = 5 mg/kg monthly for four months on two consecutive days
[8] = beagle dogs, JYD-34 isolate, 5 mg/kg monthly for four months

CC(C)(C)c1c(C(=O)N[C@H]2CCOc3ccccc32)cnn2c(-c3c(F)cc(F)cc3F)c(Cl)cc12 [Compound A484]
inhibition in vivo at 25 mg/kg [1]: 50 to 70%

Cc1cc2c(N3CCOCC3)c(C(=O)N[C@H]3CCOc4ccccc43)cnn2c1-c1cc(Cl)cc(Cl)c1Cl [Compound A501]
inhibition in vivo at 25 mg/kg [1]: 70 to 90%

Cc1cc2c(C(C)C)c(C(=O)N[C@H]3CCOc4ccccc43)cnn2c1-c1cc(F)cc(Cl)c1Cl [Compound A489]
inhibition in vivo at 25 mg/kg [1]: 70 to 90%

Cc1cc2c(C(C)(C)C)c(C(=O)N[C@H]3CCOc4ccccc43)cnn2c1-c1cc(F)cc(F)c1F [Compound A566]
inhibition in vivo at 25 mg/kg [1]: 70 to 90%

Cc1cc2c(C(C)(C)C)c(C(=O)N[C@H]3CCOc4ccccc43)cnn2c1-c1cc(Cl)cc(Cl)c1 [Compound A464]
inhibition in vivo at 25 mg/kg [1]: 70 to 90%
% Efficacy [2]: 38.2%
Geometric Mean Live Heartworm Count [2]: 16.7
efficacy against adult heartworm compared with Interceptor [2]: more effective than the commercial product Interceptor™

Cc1cc2c(N(C)C)c(C(=O)N[C@H]3CCOc4ccccc43)cnn2c1-c1cc(F)cc(Cl)c1Cl [Compound A493, 7-(2,3-dichloro-5-fluorophenyl)-N-[(4S)-3,4-dihydro-2H-1-benzopyran-4-yl]-4-(dimethylamino)-6-methylpyrrolo[1,2-b]pyridazine-3-carboxamide]
% Efficacy [3, 5]: 99.0%
Geometric Mean Live Heartworm Count [3, 5]: 0.3
% Efficacy [3, 6]: 100.0%
Geometric Mean Live Heartworm Count [3, 6]: 0
efficacy against adult heartworm [3, 7]: 100%
efficacy against adult heartworm ([3]; one single dosage of 5 mg/kg monthly for four months): 99%
inhibition in vivo at 25 mg/kg [1]: > 90%

Cc1cc2c(C(C)(C)C)c(C(=O)N[C@H]3CCOc4ccccc43)cnn2c1-c1cc(F)cc(Cl)c1Cl [Compound A481, 4-tert-butyl-7-(2,3-dichloro-5-fluorophenyl)-N-[(4S)-3,4-dihydro-2H-1-benzopyran-4-yl]-6-methylpyrrolo[1,2-b]pyridazine-3-carboxamide]
% Efficacy [3, 5]: 64.2%
Geometric Mean Live Heartworm Count [3, 5]: 11.3
% Efficacy [3, 6]: 98.0%
Geometric Mean Live Heartworm Count [3, 6]: 0.6
efficacy against adult heartworm [3, 7]: about 98%
inhibition in vivo at 25 mg/kg [1]: 70 to 90%

milbemycin oxime [reference compound]
efficacy at preventing infections with adult heartworm ([4]; Interceptor (milbemycin oxime) positive control group): 16.6%

Cc1cc2c(C(C)(C)C)c(C(=O)N[C@H]3CCOc4ccccc43)cnn2c1-c1cc(F)cc(F)c1F [Compound A471]
% Efficacy [2]: 39.0%
Geometric Mean Live Heartworm Count [2]: 16.5
efficacy against adult heartworm compared with Interceptor [2]: more effective than the commercial product Interceptor™

CC(C)(C)c1c(C(=O)N[C@H]2CCOc3ccccc32)cnn2c(-c3cc(F)cc(F)c3F)c(Cl)cc12 [Compound A486]
inhibition in vivo at 25 mg/kg [1]: 70 to 90%

Cc1cc2c(N3CCOCC3)c(C(=O)N[C@H]3CCOc4ccccc43)cnn2c1-c1cc(F)cc(F)c1F [Compound A491]
inhibition in vivo at 25 mg/kg [1]: < 50%

CC(C)(C)c1c(C(=O)N[C@H]2CCOc3ccccc32)cnn2c(-c3cc(Cl)cc(Cl)c3Cl)c(Cl)cc12 [Compound A522]
inhibition in vivo at 25 mg/kg [1]: > 90%

Cc1cc2c(C(C)(C)C)c(C(=O)NN3CCOc4ccccc43)cnn2c1-c1cc(F)cc(Cl)c1Cl [Compound A495]
inhibition in vivo at 25 mg/kg [1]: 50 to 70%

CN(C)c1c(C(=O)N[C@H]2CCOc3ccccc32)cnn2c(-c3cc(Cl)cc(Cl)c3Cl)c(Cl)cc12 [Compound A473]
inhibition in vivo at 25 mg/kg [1]: > 90%

CC(C)(C)c1c(C(=O)N[C@H]2CCOc3ccccc32)cnn2c(-c3cc(F)cc(Cl)c3Cl)c(Cl)cc12 [Compound A502, 4-tert-butyl-6-chloro-7-(2,3-dichloro-5-fluorophenyl)-N-[(4S)-3,4-dihydro-2H-1-benzopyran-4-yl]pyrrolo[1,2-b]pyridazine-3-carboxamide]
inhibition in vivo at 25 mg/kg [1]: 70 to 90%

Cc1cc2c(C(C)C)c(C(=O)N[C@H]3CCOc4ccccc43)cnn2c1-c1cc(Cl)cc(Cl)c1 [Compound A465, 7-(3,5-dichlorophenyl)-N-[(4S)-3,4-dihydro-2H-1-benzopyran-4-yl]-6-methyl-4-(propan-2-yl)pyrrolo[1,2-b]pyridazine-3-carboxamide]
inhibition in vivo at 25 mg/kg [1]: 50 to 70%

O=C(N[C@H]1CCOc2ccccc21)c1cnn2c(-c3cc(F)cc(Cl)c3Cl)c(Cl)cc2c1N1CC(F)(F)C1 [Compound A507]
inhibition in vivo at 25 mg/kg [1]: > 90%

Cc1cc2c(C(C)(C)C)c(C(=O)N[C@H]3CCOc4ccccc43)cnn2c1-c1cc(Cl)cc(Cl)c1Cl [Compound A472]
inhibition in vivo at 25 mg/kg [1]: > 90%
% Efficacy [4, 8]: 100.0%
Live Heartworm Count (geo. mean) [4, 8]: 0
efficacy at preventing infections with adult heartworm ([4]; 5 mg/kg body weight monthly for four months): 100%

Cc1cc2c(N3CC(F)(F)C3)c(C(=O)N[C@H]3CCOc4ccccc43)cnn2c1-c1cc(F)cc(Cl)c1Cl [Compound A504]
inhibition in vivo at 25 mg/kg [1]: > 90%
